Data taken from US20250197248A1, “WATER TREATMENT SYSTEM” (KEMIRA OYJ, priority 2022, published 2025).

Legend:
[1] = Residual PFA over time in dosed wastewater samples (CHEMetrics test kit); format: physicochemical; details: doses 0.5, 1 and 2 ppm; S2 samples versus S1 samples; FIG. 5
Procedure: Varying doses of PFA (0.5 ppm, 1 ppm, and 2 ppm) were dosed into S1 and S2 wastewater samples as described in Example 1. Residual levels of PFA were measured using a CHEMetrics test kit for PAA with vacuum ampules detecting in the 0-5 ppm range (Maffettone, 2020). PFA values were obtained by multiplying the PAA results by 0.82 (Maffettone, 2020). The factor of 0.82 for conversion of PAA to PFA corresponds to the molecular weight ratio of PFA (62.02 g/mol) to PAA (76.05 g/mol). Due to the fast degradation of PFA, residual PFA concentrations were determined immediately following the sample collection.

[2] = test system: fecal coliform; assay: Disinfection efficacy of PFA in wastewater samples, colony count (USEPA method 10029); format: cell-based; details: S2 (50% secondary + 50% primary-only wastewater, 30 min contact) versus S1 (secondary-treated wastewater, 90 min contact); FIG. 4A
Procedure: (§1) The disinfection efficacy of PFA against fecal coliform and E. coli was assessed in wastewater (WW) that had undergone secondary treatment (S1), and in a mixed wastewater sample comprising 50% wastewater that had undergone secondary treatment and 50% wastewater that had undergone primary treatment without secondary treatment (S2). The S2 sample would have inevitably contained higher levels of TSS, increased organic matter and increased microbial content.
(§2) WW samples were collected and stored at 4° C. […] until use (within 1 to 3 days). A PFA solution was prepared immediately prior to use by mixing 2.5 mL of 35% hydrogen peroxide with 2.5 mL of DEX®-A375 (a mixture of formic and sulfuric acids). The resultant mixture was incubated for 5 minutes at 4° C. and subsequently for 25 minutes at room temperature to complete formation of the 9.5% PFA solution. The 9.5% PFA solution was diluted to 950 mg/L by adding 0.2 mL of the 9.5% PFA solution to 19.8 mL distilled water.
(§3) WW samples were dosed with PFA to determine efficacy after set contact times. A shorter 30 minute contact time was used for the S2 samples to emulate the shorter contact times that would occur in a CSO event when the volume and rate of flow of water through the WW treatment system is increased. […] After incubation, the number of colonies was counted. […]

[3] = test system: E. coli; assay: as above; format: cell-based; details: S2 (50% secondary + 50% primary-only wastewater, 30 min contact) versus S1 (secondary-treated wastewater, 90 min contact); FIG. 4B
Procedure: as §1, §2, §3

Compound: O=COO [PFA, performic acid]
- residual PFA levels over time (degradation in wastewater) [1]: decrease more rapidly over time in S2 samples than in S1 samples
- disinfection efficacy against fecal coliform [2]: significantly reduced
- disinfection efficacy against E. coli [3]: significantly reduced
